Values quoted from earlier work in patent US20150258192A1, “COMPOSITIONS AND METHODS FOR PREVENTING OR TREATING CHRONIC LUNG ALLOGRAFT DYSFUNCTION (CLAD) AND IDIOPATHIC PULMONARY FIBROSIS (IPF)” (priority 2014, published 2015).

Tests used:
[1] = test system: PKC; settings: 1 μM; cited from earlier work
[2] = test system: PKA; settings: 1 μM; cited from earlier work
[3] = molecular target: CaMKIV (Homo sapiens, UniProt Q16566); settings: 1 μM; cited from earlier work
[4] = test system: Ca^2+/calmodulin-dependent protein kinase II (CaMKII); settings: cited from earlier work

Chain of CaMKIV (Q16566 whole entry, species assumed): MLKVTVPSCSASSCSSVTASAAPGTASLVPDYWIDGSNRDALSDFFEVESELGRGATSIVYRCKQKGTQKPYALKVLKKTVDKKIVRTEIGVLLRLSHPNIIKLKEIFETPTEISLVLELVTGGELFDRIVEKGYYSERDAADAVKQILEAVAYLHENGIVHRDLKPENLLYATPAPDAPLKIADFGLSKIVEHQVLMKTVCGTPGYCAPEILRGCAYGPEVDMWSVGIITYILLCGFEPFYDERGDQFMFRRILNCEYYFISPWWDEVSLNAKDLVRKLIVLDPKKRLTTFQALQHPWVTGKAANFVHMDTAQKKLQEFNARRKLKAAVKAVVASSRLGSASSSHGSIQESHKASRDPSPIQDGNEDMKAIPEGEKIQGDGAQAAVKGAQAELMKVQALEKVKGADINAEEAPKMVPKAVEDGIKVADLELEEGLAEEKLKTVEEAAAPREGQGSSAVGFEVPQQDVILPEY

For “autocamtide-2 related inhibitory peptide [AIP]”, the PKC activity [1] is given as “not affected”, the PKA activity [2] is given as “not affected” and the CaMKIV activity [3] is given as “not affected”. For the same substance, the CaMKII activity ([4]; 1 μM) was “inhibited completely” and the IC50 [4] was 100 nM.
